According to patent US8273745B2, “Polycyclic acid compounds useful as CRTH2 antagonists and antiallergic agents” (Astellas Pharma Inc, priority 2006, dated 2012):

Tests used:
human CRTH2 = target: T1, human CRTH2 (Homo sapiens, UniProt Q9Y5Y4); assay: Human CRTH2 binding assay (3H-labeled PGD2 binding, membranes of HEK293 cells transfected with human CRTH2); conditions: membrane preparation of HEK293 cells with human CRTH2; 2 nM 3H-labeled PGD2; 4° C., 120 minutes; read-out: IC50 (nM), in vitro human CRTH2 binding assay
T1 construct: expressed in transfected cells; host or cells: HEK293 cells, stably transfected; membrane preparation
T1 sequence (Q9Y5Y4 1-395): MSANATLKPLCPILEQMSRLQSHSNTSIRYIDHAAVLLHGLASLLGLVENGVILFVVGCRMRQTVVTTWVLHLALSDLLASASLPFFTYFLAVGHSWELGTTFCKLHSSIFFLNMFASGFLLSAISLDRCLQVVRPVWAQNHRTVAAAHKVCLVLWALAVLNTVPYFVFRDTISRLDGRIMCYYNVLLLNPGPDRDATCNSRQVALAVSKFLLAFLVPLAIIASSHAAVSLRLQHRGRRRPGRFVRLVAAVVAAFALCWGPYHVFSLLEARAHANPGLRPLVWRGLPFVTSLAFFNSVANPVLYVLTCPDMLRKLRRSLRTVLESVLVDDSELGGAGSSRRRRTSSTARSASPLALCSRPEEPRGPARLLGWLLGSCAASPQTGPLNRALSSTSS
Procedure: Human CRTH2 Binding Assay
To evaluate CRTH2 binding activities of example compounds, PGD2 binding assay was performed as modifications of former paper (Journal of pharmacology and experimental therapeutics, 2003, 306(2), pp. 463-470).
HEK293 cells stably transfected with human CRTH2 cDNA were suspended in assay buffer (10 mM BES, 1 mM EDTA, 10 mM MnCl2, pH=7.0) and broken into pieces by strong mixture using injection needle. The membrane preparation at the concentration of 50 μg protein was mixed with various concentrations of compounds. Binding reaction was initiated by an addition of ^3H-labeled PGD2 to a final concentration of 2 nM and the reaction mixture was incubated at 4° C. for 120 minutes. The reaction was terminated by filtration using GF/B plate (PerkinElmer) which was washed with wash buffer (10 mM BES, 0.01% BSA). ^3H-labeled PGD2 which binds to CRTH2 were captured on this plate and the radioactivity was measured. The total and non-specific binding were determined in the absence and presence of 10 μM DK-PGD2. The binding activity of each compound was expressed as IC50 value.

[1] = tested on: Guinea Pig antigen-induced hyper-responsiveness; assay: Guinea Pig antigen-induced hyper-responsiveness model; assay type: in vivo; conditions: OVA-sensitized male Hartley guinea pigs, AUC of peak inflation pressure versus methacholine dose
Procedure: Guinea Pig Antigen-Induced Hyper-Responsiveness Model
To evaluate anti asthma efficacy of the compounds, they were administered to Guinea Pig antigen-induced hyper-responsiveness model which is cited in the literature with minor modifications (Agents Actions, 1992, 37, pp. 162-164).
Male Hartley guinea pigs were actively sensitized to ovalbumin (OVA) by i.p. injection of 20 mg in 0.9% saline at day 0 and 1 mg at day 2. Animals were exposed for 10 minutes on days 14-21 to an aerosol of 0.5% OVA solution in 0.9% saline or saline alone generated from a nebulizer. All animals were treated with compound by p.o. administration 60 minutes prior to the aerosol and 1 mg/kg pyrilamine by i.p. injection 30 minutes prior to the aerosol. On day 22, animal was anesthetized with urethane (1.5 g/kg). The trachea was cannulated and the animal was mechanically ventilated (60 strokes/minute; 1 mL/100 g body weight) with a small animal respirator. Pulmonary inflation pressure (PIP) was monitored with a pressure transducer. Doses of methacholine (0-14 μg/kg) were administered sequentially (3 minutes intervals) by the right jugular vein to each animal. The area under the peak inflation pressure versus methacholine dose curve (AUC) was calculated for each animal.

Row | Structure (SMILES) | IC50 (human CRTH2) | inhibition (%) ([1]; dose 1 mg/kg p.o.) | inhibition (%) ([1]; dose 10 mg/kg p.o.) | inhibition (%) ([1]; dose 3 mg/kg p.o.)
1 | O=C(O)COc1cccc(CCCN2C(=O)OC[C@@H]2C(c2ccccc2)c2ccccc2)c1 [Example 72, (3-{3-[(4S)-4-(Diphenylmethyl)-2-oxo-1,3-oxazolidin-3-yl]propyl}phenoxy)acetic acid] | 5.5 nM |  |  | 
2 | O=C(O)CCCOc1cccc(CCCn2cc(C(c3ccc(F)cc3)c3ccc(F)cc3)ccc2=O)c1 [Example 112, 4-[3-(3-{5-[Bis(4-fluorophenyl)methyl]-2-oxopyridin-1(2H)-yl}propyl)phenoxy]butanoic acid] | 24 nM | 60% |  | 
3 | O=C(O)Cn1ccc2c(CCCn3cc(C(c4ccccc4)c4ccccc4)ccc3=O)cccc21 [Example 4, (4-{3-[5-(diphenylmethyl)-2-oxopyridin-1(2H)-yl]propyl}-1H-indol-1-yl)acetic acid] | 3.6 nM |  |  | 
4 | O=C(O)CCCOc1cccc(CCCn2nc(C(c3ccccc3)c3ccccc3)ccc2=O)c1 [Example 69, 4-(3-{3-[3-(Diphenylmethyl)-6-oxopyridazin-1(6H)-yl]propyl}phenoxy)butanoic acid] | 14 nM |  |  | 
5 | NS(=O)(=O)c1cccc(C(=O)N(CCCc2cccc(OCC(=O)O)c2)CCC(c2ccccc2)c2ccccc2)c1 [Example 99, [3-(3-{[3-(Aminosulfonyl)benzoyl](3,3-diphenylpropyl)amino}propyl)phenoxy]acetic acid] | 4.8 nM |  |  | 
6 | O=C(O)COc1cccc(CCCn2cc(C(c3ccccc3)c3ccccc3)ccc2=O)c1 [Example 10, (3-{3-[5-(diphenylmethyl)-2-oxopyridin-1(2H)-yl]propyl}phenoxy)acetic acid] | 42 nM |  | 100% | 
7 | C[C@H](Oc1cccc(CCCn2nc(C(c3ccccc3)c3ccccc3)ccc2=O)c1)C(=O)O [Example 59, (2S)-2-(3-{3-[3-(Diphenylmethyl)-6-oxopyridazin-1(6H)-yl]propyl}phenoxy)propanoic acid] | 13 nM |  |  | 93%
8 | O=C(O)CCCOc1cccc(CCCn2nc(C(c3ccc(F)cc3)c3ccc(F)cc3)ccc2=O)c1 [Example 111, 4-[3-(3-{3-[Bis(4-fluorophenyl)methyl]-6-oxopyridazin-1(6H)-yl}propyl)phenoxy]butanoic acid] | 18 nM |  |  | 89%
9 | O=C(O)COc1cccc(CCCn2cc(-c3ccccc3-c3cccc4ccccc34)ccc2=O)c1 [Example 123, [3-(3-{5-[2-(1-Naphthyl)phenyl]-2-oxopyridin-1(2H)-yl}propyl)phenoxy]acetic acid] | 7.6 nM |  |  | 
10 | O=C(O)CCCOc1cccc(SCCn2cc(C(c3ccccc3)c3ccccc3)ccc2=O)c1 [Example 84, 4-[3-({2-[5-(Diphenylmethyl)-2-oxopyridin-1(2H)-yl]ethyl}sulfanyl)phenoxy]butanoic acid] | 8.1 nM |  |  | 100%
